Experimental data as given in patent US7528138B2, “Pyrazolo[1,5-a]pyrimidines useful as inhibitors of protein kinases” (Vertex Pharmaceuticals Incorporated, priority 2004, dated 2009).

How the values were obtained:
Assay type in all cases: biochemical
Itk = biological target: T1, Itk (Homo sapiens, UniProt Q08881); test: ITK Inhibition Assay (Radiometric), radioactive-phosphate incorporation; details: enzyme inhibition data (Ki), Table 11; radiometric or UV assay not stated
T1 sequence (Q08881 1-620): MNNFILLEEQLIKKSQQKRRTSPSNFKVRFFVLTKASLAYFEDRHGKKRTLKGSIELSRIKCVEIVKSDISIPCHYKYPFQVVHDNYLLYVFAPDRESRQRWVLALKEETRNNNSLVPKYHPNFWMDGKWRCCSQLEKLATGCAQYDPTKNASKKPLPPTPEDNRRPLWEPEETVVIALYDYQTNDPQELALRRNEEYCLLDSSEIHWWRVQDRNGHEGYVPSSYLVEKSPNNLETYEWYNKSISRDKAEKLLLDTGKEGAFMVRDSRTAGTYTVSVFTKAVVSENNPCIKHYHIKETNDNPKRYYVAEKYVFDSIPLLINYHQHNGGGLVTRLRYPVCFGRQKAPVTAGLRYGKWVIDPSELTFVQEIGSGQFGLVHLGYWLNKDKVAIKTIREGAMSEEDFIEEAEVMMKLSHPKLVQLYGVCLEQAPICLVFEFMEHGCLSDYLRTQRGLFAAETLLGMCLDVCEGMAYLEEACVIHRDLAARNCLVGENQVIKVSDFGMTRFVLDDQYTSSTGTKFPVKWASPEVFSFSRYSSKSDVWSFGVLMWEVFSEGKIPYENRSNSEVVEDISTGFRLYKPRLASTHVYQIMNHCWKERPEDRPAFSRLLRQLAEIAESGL
Summary of the method: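 Radiometric 33P incorporation into SAM68 peptide (D332-443) with filter capture and scintillation counting; 10 min pre-incubation then 10 min reaction at 25° C. IC50 format: 30 nM Itk, 15 μM ATP, 2 μM peptide, HEPES pH 7.5. Ki(app) format: 50 nM Itk, 7.5 μM ATP, 3 μM peptide, MOPS pH 7.0.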

JAK3 = biological target: T2, JAK3 (Homo sapiens, UniProt P52333); test: JAK3 Inhibition Assay, 33P incorporation; details: enzyme inhibition data (Ki), Table 11
T2 sequence (P52333 1-1124): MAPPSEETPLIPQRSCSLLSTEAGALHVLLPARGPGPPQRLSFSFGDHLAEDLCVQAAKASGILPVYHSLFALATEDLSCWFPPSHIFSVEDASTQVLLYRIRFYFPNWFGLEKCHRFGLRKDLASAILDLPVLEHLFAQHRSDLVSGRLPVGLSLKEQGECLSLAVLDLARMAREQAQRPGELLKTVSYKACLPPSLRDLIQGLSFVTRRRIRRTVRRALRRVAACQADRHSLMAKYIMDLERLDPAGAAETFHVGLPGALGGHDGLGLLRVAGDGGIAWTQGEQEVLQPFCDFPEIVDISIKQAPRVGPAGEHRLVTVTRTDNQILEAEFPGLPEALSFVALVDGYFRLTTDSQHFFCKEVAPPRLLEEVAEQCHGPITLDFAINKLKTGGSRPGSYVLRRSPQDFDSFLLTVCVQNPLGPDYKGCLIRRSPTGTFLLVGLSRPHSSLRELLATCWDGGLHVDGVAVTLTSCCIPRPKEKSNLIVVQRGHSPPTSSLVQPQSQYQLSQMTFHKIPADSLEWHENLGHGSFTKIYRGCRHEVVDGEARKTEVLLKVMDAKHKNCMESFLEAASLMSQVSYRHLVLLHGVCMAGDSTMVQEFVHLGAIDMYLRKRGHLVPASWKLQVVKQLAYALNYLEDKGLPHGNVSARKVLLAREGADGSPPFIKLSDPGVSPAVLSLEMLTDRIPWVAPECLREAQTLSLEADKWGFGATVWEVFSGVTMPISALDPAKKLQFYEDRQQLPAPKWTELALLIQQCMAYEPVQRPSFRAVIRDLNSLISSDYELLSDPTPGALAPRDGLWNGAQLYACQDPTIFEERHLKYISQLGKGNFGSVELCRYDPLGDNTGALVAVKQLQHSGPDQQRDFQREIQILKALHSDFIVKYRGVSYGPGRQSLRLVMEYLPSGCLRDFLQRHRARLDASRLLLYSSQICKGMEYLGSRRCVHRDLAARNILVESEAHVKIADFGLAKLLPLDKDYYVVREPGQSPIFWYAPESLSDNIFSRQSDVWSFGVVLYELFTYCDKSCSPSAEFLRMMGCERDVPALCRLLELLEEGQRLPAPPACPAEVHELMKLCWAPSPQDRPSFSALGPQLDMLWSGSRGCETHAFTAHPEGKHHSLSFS
Summary of the method: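 33P incorporation into 1 μM poly(Glu)4Tyr was counted after TCA stop and glass fiber filtration. The 20 min reaction ran at 25 °C with 1 nM JAK3 and 5 μM ATP (200 uCi/μmole). Buffer was 100 mM HEPES pH 7.4, 10 mM MgCl2, 25 mM NaCl, 1 mM DTT, 0.01% BSA.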

c-Met = c-Met (Homo sapiens, UniProt P08581); test: c-Met Inhibition Assay, coupled enzyme system; details: enzyme inhibition data (Ki), Table 11
Chain of c-Met (P08581 25-1390): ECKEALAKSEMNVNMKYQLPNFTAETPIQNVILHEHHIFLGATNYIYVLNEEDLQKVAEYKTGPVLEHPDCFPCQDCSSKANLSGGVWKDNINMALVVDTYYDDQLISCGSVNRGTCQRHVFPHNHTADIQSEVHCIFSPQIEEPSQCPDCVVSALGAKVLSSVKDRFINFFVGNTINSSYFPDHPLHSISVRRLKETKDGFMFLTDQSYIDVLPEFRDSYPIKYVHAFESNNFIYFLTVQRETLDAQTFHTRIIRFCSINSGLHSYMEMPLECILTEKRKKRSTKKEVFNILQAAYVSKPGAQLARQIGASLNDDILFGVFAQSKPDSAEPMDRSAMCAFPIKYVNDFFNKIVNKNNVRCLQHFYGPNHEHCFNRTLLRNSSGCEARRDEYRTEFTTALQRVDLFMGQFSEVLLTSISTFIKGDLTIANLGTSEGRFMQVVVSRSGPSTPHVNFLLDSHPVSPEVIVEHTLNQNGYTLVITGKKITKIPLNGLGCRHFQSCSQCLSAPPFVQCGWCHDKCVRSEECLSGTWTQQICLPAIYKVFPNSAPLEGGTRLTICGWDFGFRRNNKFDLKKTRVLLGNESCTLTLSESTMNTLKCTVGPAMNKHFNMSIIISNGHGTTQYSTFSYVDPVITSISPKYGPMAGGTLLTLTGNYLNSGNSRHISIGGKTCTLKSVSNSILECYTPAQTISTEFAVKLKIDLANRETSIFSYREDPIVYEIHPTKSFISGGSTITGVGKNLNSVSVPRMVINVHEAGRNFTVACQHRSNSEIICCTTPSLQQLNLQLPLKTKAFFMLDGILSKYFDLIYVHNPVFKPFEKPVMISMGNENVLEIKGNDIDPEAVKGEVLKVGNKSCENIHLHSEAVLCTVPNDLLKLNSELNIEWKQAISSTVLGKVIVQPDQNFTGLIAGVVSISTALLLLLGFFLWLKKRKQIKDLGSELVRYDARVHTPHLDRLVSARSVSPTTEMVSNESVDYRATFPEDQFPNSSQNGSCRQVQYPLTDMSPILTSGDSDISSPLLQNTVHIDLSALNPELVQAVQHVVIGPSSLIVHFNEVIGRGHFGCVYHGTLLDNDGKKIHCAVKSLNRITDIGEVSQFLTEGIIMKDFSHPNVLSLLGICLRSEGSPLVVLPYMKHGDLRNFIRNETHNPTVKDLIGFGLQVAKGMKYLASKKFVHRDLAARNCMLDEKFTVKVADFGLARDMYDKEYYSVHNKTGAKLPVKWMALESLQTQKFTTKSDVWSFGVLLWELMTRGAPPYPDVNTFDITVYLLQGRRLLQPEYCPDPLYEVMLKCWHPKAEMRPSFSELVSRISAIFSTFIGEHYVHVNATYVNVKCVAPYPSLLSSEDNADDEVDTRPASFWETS
Summary of the method: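 Pyruvate kinase/lactate dehydrogenase-coupled NADH assay in HEPES pH 7.5 with 80 nM c-Met, 200 μM ATP and 10 μM polyGluTyr at 30° C. Compound (0.006–12.5 μM final, 12-point) preincubated 10 min before ATP start; rates over 10 min gave Ki.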

SMILES	Ki (Itk) [nM]	Ki (JAK3) [nM]	Ki (c-Met) [nM]
Nc1nn2cc(-c3ccc(N4CCN(CCOCCO)CC4)nc3)cnc2c1-c1ccccn1 [Compound V-150]	< 500	> 5000	< 500
CN(CCc1ccccn1)C(=O)c1ccc(-c2cnc3c(-c4ccccn4)c(N)nn3c2)nc1 [Compound V-60]	500 to 5000	500 to 5000	< 500
Nc1nn2cc(-c3cccc(C(=O)N4CCC(N)C4)n3)cnc2c1-c1ccccn1 (stereo not drawn) [Compound V-119]	500 to 5000	500 to 5000	< 500
Nc1nn2cc(-c3ccnc(N4CCN(Cc5ccccc5)CC4)c3)cnc2c1-c1ccccn1 [Compound V-247]	500 to 5000	> 5000	< 500
Cc1n[nH]c(C)c1-c1cnc2c(-c3ccccn3)c(N)nn2c1 [Compound V-53]	500 to 5000	> 5000	< 500
Nc1nn2cc(-c3ccc(C(=O)N4CCC[C@@H]4CN4CCCC4)cn3)cnc2c1-c1ccccn1 [Compound V-153]	< 500	500 to 5000	< 500
CC(=O)N1CCN(c2ccc(-c3cnc4c(-c5ccccn5)c(N)nn4c3)cn2)CC1 [Compound V-149]	500 to 5000	500 to 5000	< 500
COc1ccc(-c2cnc3c(-c4ccccn4)c(N)nn3c2)cn1 [Compound V-50]	500 to 5000	> 5000	< 500
CC(C)(C)OCc1ccccc1-c1cnc2c(-c3ccccn3)c(N)nn2c1 [Compound V-49]	500 to 5000	> 5000	500 to 5000
Nc1nn2cc(-c3ccc(N4CCN(Cc5ccncc5)CC4)nc3)cnc2c1-c1ccccn1 [Compound V-163]	500 to 5000	> 5000	< 500
N#Cc1cccc(-c2cnc3c(-c4ccccn4)c(N)nn3c2)c1 [Compound V-197]	< 500	> 5000	< 500
COc1cccc(OC)c1-c1cnc2c(-c3ccccn3)c(N)nn2c1 [Compound V-3]	500 to 5000	> 5000	500 to 5000

The remaining lines, values ahead:

Ki (Itk) [nM]	Ki (JAK3) [nM]	Ki (c-Met) [nM]	SMILES
500 to 5000	< 500	< 500	Cc1cnc2c(-c3cc(N4CCCC(C(N)=O)C4)ncn3)c(N)nn2c1 (stereo not drawn) [Compound V-309]
500 to 5000	> 5000	500 to 5000	Cc1cnc2c(-c3cc(N4CCC(CCc5ccccc5)C4)ncn3)c(N)nn2c1 (stereo not drawn) [Compound V-304]
500 to 5000	500 to 5000	< 500	Nc1nn2cc(-c3ccnc(N4CCN(CCOCCO)CC4)c3)cnc2c1-c1ccccn1 [Compound V-249]
500 to 5000	> 5000	< 500	Nc1nn2cc(CCCN3CCCC3)cnc2c1-c1ccccn1 [Compound V-311]
< 500	500 to 5000	< 500	Cc1cnc2c(-c3cc(N[C@@H](C)C(C)C)ncn3)c(N)nn2c1 [Compound V-296]
500 to 5000	> 5000	500 to 5000	Nc1nn2cc(-c3cccnc3N3CC[C@H](CN4CCCC4)C3)cnc2c1-c1ccccn1 [Compound V-261]
500 to 5000	500 to 5000	< 500	Cc1cnc2c(-c3cc(N[C@@H]4CCOC4)ncn3)c(N)nn2c1 [Compound V-335]
500 to 5000	> 5000	500 to 5000	Nc1nn2cc(-c3cccnc3N3CCCC(CO)C3)cnc2c1-c1ccccn1 (stereo not drawn) [Compound V-270]
500 to 5000	> 5000	500 to 5000	CCN1CCN(CCCc2cnc3c(-c4ccccn4)c(N)nn3c2)CC1 [Compound V-315]
500 to 5000	> 5000	500 to 5000	CCOC(=O)C1CCCN(CCCc2cnc3c(-c4ccccn4)c(N)nn3c2)C1 (stereo not drawn) [Compound V-330]
500 to 5000	> 5000	500 to 5000	Nc1nn2cc(-c3cccnc3N3CCC(N4CCCC4)CC3)cnc2c1-c1ccccn1 [Compound V-265]
500 to 5000	500 to 5000	< 500	Nc1nn2cc(-c3ccnc(N4CCN(CCO)CC4)c3)cnc2c1-c1ccccn1 [Compound V-248]
